Columns and labels:
HBV [1] = conditions: patients chronically infected with HBV; cited from earlier work
HDV = test: Inhibition of HDV infection of primary human hepatocytes, antigenomic HDV RNA by real-time PCR; assay type: cell-based; conditions: for Inhibition of HDV replication: 50 nM final concentration, primary human hepatocytes, 7 days
Text: (§1) In order to test inhibitory activity of the IA and related proteins, primary human hepatocytes infected in the presence of 5% polyethylene glycol 8000 (Sigma) were used with in vitro assembled HDV at a multiplicity of 10 genome equivalents (GE) per cell, or by HBV at a multiplicity of 50 GE/cell. […] One related protein was the S1S2, lacking the Fc domain (FIG. 1B). Another was a synthetic peptide corresponding to positions 2-48 of the ayw PreS1, with myristoylation at the N terminal glycine as described in Engelke, et al., 2006, Hepatology, 43:750-760. After 7-8 days total, cell RNA was extracted and HDV antigenomic RNA and HBV RNA were quantitated using real-time PCR.
Others have shown that peptides based on the N terminus of HBV preS1 are able to interfere with infection of primary hepatocytes and of HepaRG cells, a cell line made from a differentiated liver tumor (Gripon, et al., 2005, J. Virol., 79:1613-1622, Gripon, et al., 2002, Proc. Natl. Acad. Sci., USA 99:15655-15660). […] Secreted IAs were tested for their ability to interfere with the infection of primary human hepatocytes by HDV. For these studies the source of IA was simple dilutions of the media from transiently transfected cells that both expressed and secreted the IA. To assess HDV replication the total RNA was extracted after 7 days and antigenomic RNA was quantitated by real-time PCR.

HBV [2] = test: Inhibition of HBV infection of primary human hepatocytes, HBV RNA by real-time PCR; assay type: cell-based, Hepatitis B virus
Text: as §1
In parallel with the experiment shown in FIG. 4B, experiments were designed to determined whether S1S2-IA would also act on HBV infection.

[3] = Ultracentrifugation of media to test whether released IA is a soluble protein; assay type: physicochemical; conditions: conditions that pellet HDV and HBV subviral particles
Text: In addition, experiments were designed to tested whether the released IA was actually a soluble protein. Media samples containing albumin and secreted […] were clarified by low speed centrifugation and then subjected to ultracentrifugation, using conditions that pellet HDV and HBV subviral particles. It was observed that about >85% of the albumin and S1S2-IA remained in the supernatant. Without wishing to be bound by any particular theory, it is believed that because the IAs behaved similar to albumin, than IAs were soluble proteins.

HBV [4] = conditions: in vivo; cited from earlier work

For `C=C1[C@H](CO)[C@@H](O)C[C@@H]1n1cnc2c(=O)[nH]c(N)nc21` [Entecavir], the “Suppression of HBV levels in serum” value (HBV [1]) is given as 100,000 fold.
In the case of “S1-IA: immunoadhesin: HBV preS1 domain (1-119, adw2) fused N terminally to Fc region of a rabbit IgG heavy chain”, the “Inhibition of HDV replication” value (HDV) was 90%.
With “S1S2-IA: immunoadhesin: HBV preS1 plus preS2 domains fused to Fc region of a rabbit IgG heavy chain” the “Inhibition of HBV infection compared with HDV infection” value (HBV [2]; parallel experiments) was “not significantly different”, the “Inhibition of HBV infection” value (HBV [2]; primary human hepatocytes, HBV RNA) was “there was inhibition” and the “Inhibition of HDV replication” value (HDV) was 90%. For the same compound, the “Effect of 30 minute pretreatment on level of inhibition of HDV” value (HDV; pretreatment in addition to treatment during infection) was “did not significantly increase the level of inhibition” and the “Fraction remaining in the supernatant after ultracentrifugation” value [3] was greater than 85%.
For “acylated peptide: synthetic peptide corresponding to positions 2-48 of the ayw PreS1, with myristoylation at the N terminal glycine [reference compound]”, the “Inhibition of HDV replication compared with S1-IA and S1S2-IA” value (HDV; primary human hepatocytes, 2, 10 and 50 nM) was “more inhibition than the two IA”.
In the case of α-interferon, the “Patients in whom effective” value (HBV [4]) is listed as “about 33%”.

From US8748373B2, “Hepatitis B virus compositions and methods of use” (priority 2007, dated 2014)
